Assay results taken from patent US11813340B2, “PSMA targeted radiohalogenated urea-polyaminocarboxylates for cancer radiotherapy” (The Johns Hopkins University, priority 2018, dated 2023).
Entries after “also recorded” stand apart in the source; their conditions may differ.

Columns and labels:
[1] = tested on: PSMA+PC3-PIP and PSMA-PC3-flu flank xenografts; experiment: Biodistribution of [125I/211At]2 and 3 with and without co-injection of DCIBzL (Example 6); format: in vivo, athymic mice
Text: Final compounds were purified by HPLC.

[2] = tested on: CD-1 mice; experiment: Long-term toxicity in healthy immunocompetent mice; format: in vivo; settings: 1.48 MBq, 0.74 MBq, 0.244 MBq; up to 4 months after treatment
[3] = tested on: PSMA+ PC3-PIP; experiment: Efficacy in subcutaneous (SC) PSMA+ PC3-PIP model; format: in vivo, NOD/SCID/IL-2rγ−/− (NSG) mice; settings: single intravenous injection of different doses; FIG. 3A
Method: (§1) Two murine models of human PC were generated, a subcutaneous (SC) model of PSMA+PC3-PIP and PSMA-PC3-flu cells and a metastatic model of PSMA+ PC3ML/PSMA/fLuc in NOD/SCID/IL-2rγ−/− (NSG) mice. Single intravenous injection of different doses (FIG. 3) was given to each animal and the tumor progression was monitored by measuring the SC tumor volume or by performing bioluminescence imaging for the metastatic model.

[4] = tested on: PSMA + PC3-PIP and PSMA-PC3-flu flank xenografts; settings: previously shown, Mease et al., 2018; cited from earlier work
[5] = tested on: PSMA− PC3-flu; experiment: Efficacy in subcutaneous (SC) PSMA− PC3-flu model; format: in vivo, NOD/SCID/IL-2rγ−/− (NSG) mice; settings: single intravenous injection of different doses; FIG. 3A
Method: as §1

[6] = tested on: PSMA + PC3-PIP and PSMA-PC3-flu flank xenografts; experiment: Biodistribution of At-211 labeled PSMA inhibitors with and without cold blocking agent (Tables 6-8); format: in vivo, athymic mice
Method: Organs were harvested 1, 4, and 24 h post-injection (n=5 per time point).

[7] = 21-24 Hour (footnote b), + 0.25 nmole YC-I-27
[8] = 21-24 Hour (footnote b), no blocker

SMILES: O=C([O-])CN1CCN(CC(=O)[O-])CCN(CC(=O)NCCCCC(=O)N(CCCC[C@H](NC(=O)N[C@@H](CCC(=O)O)C(=O)O)C(=O)O)Cc2ccc([211At])cc2)CCN(CC(=O)[O-])CC1.[Lu+3] [[^211At]VK-02-90-Lu]
- Stomach uptake ([1]; @ 1 h): 0.4±0.2 % ID/g
- retention, K ([1]; @1 h, co-injection of DCIBzL): 2.2±0.6 % ID/g
- retention, LG ([1]; @1 h, co-injection of DCIBzL): below detection
- retention, SG ([1]; @1 h, co-injection of DCIBzL): 0.4±0.15 % ID/g
- Stomach uptake ([1]; @ 4 h): 0.4±0.05 % ID/g
- Stomach uptake ([1]; @ 24 h): 0.4±0.7 % ID/g
- ^211At uptake in PSMA+ PC3-PIP xenografts ([1]; combined with DCIBzL): 25.4±4.4 % ID/g
- deastatination in vivo ([1]; mouse, in vivo, listed as [^211At]3): negligible deastatination; also recorded: no evidence of deastatination in vivo
- treatment-related toxicity (overall health status and urinalysis) [2]: No CD-1 animals showed treatment-related toxicity
- response in PSMA+ PC3-PIP SC model (SC tumor volume) [3]: dose-dependent response; also recorded: dose-dependent efficacy
- renal clearance [4]: rapid renal clearance
- retention in PSMA+tumors [4]: persistent retention
- effect on PSMA− PC3-flu SC model [5]: no effect
- Biodistribution, Blood ([6]; 1 Hour, 0.5 nmole YC-I-27): 0.5 ± 0.1 % injected dose/g
- Biodistribution, Flu tumor ([6]; 1 Hour, 0.5 nmole YC-I-27): 0.4 ± 0.1 % injected dose/g
- Biodistribution, PIP tumor ([6]; 1 Hour, 0.5 nmole YC-I-27): 25.4 ± 4.4 % injected dose/g
- Biodistribution, Spleen ([6]; 1 Hour, 0.5 nmole YC-I-27): 0.3 ± 0.4 % injected dose/g
- Biodistribution, Stomach ([6]; 1 Hour, 0.5 nmole YC-I-27): 0.4 ± 0.2 % injected dose/g
- Biodistribution, kidney ([6]; 1 Hour, 0.5 nmole YC-I-27): 2.2 ± 0.6 % injected dose/g
- Biodistribution, lacrimal gland ([6]; 1 Hour, 0.5 nmole YC-I-27): 0 % injected dose/g
- Biodistribution, salivary gland ([6]; 1 Hour, 0.5 nmole YC-I-27): 0.4 ± 0.15 % injected dose/g
- Biodistribution, Blood ([6]; 1 Hour, + 0.25 nmole YC-I-27): 0.6 ± 0.04 % injected dose/g
- Biodistribution, Flu tumor ([6]; 1 Hour, + 0.25 nmole YC-I-27): 0.4 ± 0.1 % injected dose/g
- Biodistribution, PIP tumor ([6]; 1 Hour, + 0.25 nmole YC-I-27): 34.2 ± 7.8 % injected dose/g
- Biodistribution, Spleen ([6]; 1 Hour, + 0.25 nmole YC-I-27): 0.5 ± 0.4 % injected dose/g
- Biodistribution, Stomach ([6]; 1 Hour, + 0.25 nmole YC-I-27): 0.4 ± 0.2 % injected dose/g
- Biodistribution, kidney ([6]; 1 Hour, + 0.25 nmole YC-I-27): 5.0 ± 1.6 % injected dose/g
- Biodistribution, lacrimal gland ([6]; 1 Hour, + 0.25 nmole YC-I-27): 0.1 ± 0.4 % injected dose/g
- Biodistribution, salivary gland ([6]; 1 Hour, + 0.25 nmole YC-I-27): 0.4 ± 0.15 % injected dose/g
- Biodistribution, Blood ([6]; 1 Hour, no blocker): 0.8 ± 0.2 % injected dose/g
- Biodistribution, Flu tumor ([6]; 1 Hour, no blocker): 0.4 ± 0.2 % injected dose/g
- Biodistribution, PIP tumor ([6]; 1 Hour, no blocker): 30.6 ± 4.8 % injected dose/g
- Biodistribution, Spleen ([6]; 1 Hour, no blocker): 2.5 ± 0.9 % injected dose/g
- Biodistribution, Stomach ([6]; 1 Hour, no blocker): 0.4 ± 0.1 % injected dose/g
- Biodistribution, kidney ([6]; 1 Hour, no blocker): 90 ± 43 % injected dose/g
- Biodistribution, lacrimal gland ([6]; 1 Hour, no blocker): 0.8 ± 0.9 % injected dose/g
- Biodistribution, salivary gland ([6]; 1 Hour, no blocker): 0.5 ± 0.2 % injected dose/g
- Biodistribution, Blood ([6]; 4 H, 0.5 nmole YC-I-27): 0.2 ± 0.1 % injected dose/g
- Biodistribution, Flu tumor ([6]; 4 H, 0.5 nmole YC-I-27): 0.1 ± 0.04 % injected dose/g
- Biodistribution, PIP tumor ([6]; 4 H, 0.5 nmole YC-I-27): 18.7 ± 5.4 % injected dose/g
- Biodistribution, Spleen ([6]; 4 H, 0.5 nmole YC-I-27): 0.8 ± 0.5 % injected dose/g
- Biodistribution, Stomach ([6]; 4 H, 0.5 nmole YC-I-27): 0.4 ± 0.05 % injected dose/g
- Biodistribution, kidney ([6]; 4 H, 0.5 nmole YC-I-27): 0.7 ± 0.1 % injected dose/g
- Biodistribution, lacrimal gland ([6]; 4 H, 0.5 nmole YC-I-27): 0 % injected dose/g
- Biodistribution, salivary gland ([6]; 4 H, 0.5 nmole YC-I-27): 0.3 ± 0.2 % injected dose/g
- Biodistribution, Blood ([6]; 4 H, + 0.25 nmole YC-I-27): 0.2 ± 0.1 % injected dose/g
- Biodistribution, Flu tumor ([6]; 4 H, + 0.25 nmole YC-I-27): 0.1 ± 0.2 % injected dose/g
- Biodistribution, PIP tumor ([6]; 4 H, + 0.25 nmole YC-I-27): 27.8 ± 8.7 % injected dose/g
- Biodistribution, Spleen ([6]; 4 H, + 0.25 nmole YC-I-27): 0.1 ± 0.5 % injected dose/g
- Biodistribution, Stomach ([6]; 4 H, + 0.25 nmole YC-I-27): 0.5 ± 0.3 % injected dose/g
- Biodistribution, kidney ([6]; 4 H, + 0.25 nmole YC-I-27): 1.4 ± 0.3 % injected dose/g
- Biodistribution, lacrimal gland ([6]; 4 H, + 0.25 nmole YC-I-27): 0.4 ± 0.4 % injected dose/g
- Biodistribution, salivary gland ([6]; 4 H, + 0.25 nmole YC-I-27): 0.2 ± 0.1 % injected dose/g
- Biodistribution, Blood ([6]; 4 H, no blocker): 0.1 ± 0.03 % injected dose/g
- Biodistribution, Flu tumor ([6]; 4 H, no blocker): 0.1 ± 0.1 % injected dose/g
- Biodistribution, Spleen ([6]; 4 H, no blocker): 0 % injected dose/g
- Biodistribution, Stomach ([6]; 4 H, no blocker): 0.3 ± 0.2 % injected dose/g
- Biodistribution, kidney ([6]; 4 H, no blocker): 2.1 ± 0.6 % injected dose/g
- Biodistribution, lacrimal gland ([6]; 4 H, no blocker): 0.3 ± 1.1 % injected dose/g
- Biodistribution, salivary gland ([6]; 4 H, no blocker): 0.2 ± 0.1 % injected dose/g
- Biodistribution, Blood [6, 7]: 0.3 ± 1.0 % injected dose/g
- Biodistribution, Flu tumor [6, 7]: 0.04 ± 0.2 % injected dose/g
- Biodistribution, PIP tumor [6, 7]: 15.3 ± 8.0 % injected dose/g
- Biodistribution, Spleen [6, 7]: 0 % injected dose/g
- Biodistribution, Stomach [6, 7]: 0.3 ± 0.4 % injected dose/g
- Biodistribution, kidney [6, 7]: 0.3 ± 0.4 % injected dose/g
- Biodistribution, lacrimal gland [6, 7]: 0 % injected dose/g
- Biodistribution, salivary gland [6, 7]: 0 % injected dose/g
- Biodistribution, Blood [6, 8]: 0 % injected dose/g
- Biodistribution, Flu tumor [6, 8]: 0 % injected dose/g
- Biodistribution, PIP tumor [6, 8]: 9.5 ± 1.0 % injected dose/g
- Biodistribution, Spleen [6, 8]: 0 % injected dose/g
- Biodistribution, Stomach [6, 8]: 0 % injected dose/g
- Biodistribution, kidney [6, 8]: 0.02 ± 0.2 % injected dose/g
- Biodistribution, lacrimal gland [6, 8]: 0 % injected dose/g
- Biodistribution, salivary gland [6, 8]: 0 % injected dose/g
- Biodistribution, Blood ([6]; 21-24 Hour, 0.5 nmole YC-I-27): 0.03 ± 0.3 % injected dose/g
- Biodistribution, Flu tumor ([6]; 21-24 Hour, 0.5 nmole YC-I-27): 0.2 ± 0.3 % injected dose/g
- Biodistribution, PIP tumor ([6]; 21-24 Hour, 0.5 nmole YC-I-27): 17.5 ± 7.9 % injected dose/g
- Biodistribution, Spleen ([6]; 21-24 Hour, 0.5 nmole YC-I-27): 2.5 ± 4.3 % injected dose/g
- Biodistribution, Stomach ([6]; 21-24 Hour, 0.5 nmole YC-I-27): 0.4 ± 0.7 % injected dose/g
- Biodistribution, kidney ([6]; 21-24 Hour, 0.5 nmole YC-I-27): 0.4 ± 0.5 % injected dose/g
- Biodistribution, lacrimal gland ([6]; 21-24 Hour, 0.5 nmole YC-I-27): 0 % injected dose/g
- Biodistribution, salivary gland ([6]; 21-24 Hour, 0.5 nmole YC-I-27): 0 % injected dose/g
- kidney and stomach uptake ([6]; compared to other At-211 labeled PSMA inhibitors): lower kidney and stomach uptake
